US8105845B2, “System and method for carrying out multiple binding reactions in an array format” (Bio-Rad Haifa Ltd., priority 2003, dated 2012)

Legend:
[1] = biological target: T1, Cytochrome-P450 (CYP) 1A2 (Homo sapiens, UniProt P05177); test: biochemical
T1 sequence (P05177 1-516): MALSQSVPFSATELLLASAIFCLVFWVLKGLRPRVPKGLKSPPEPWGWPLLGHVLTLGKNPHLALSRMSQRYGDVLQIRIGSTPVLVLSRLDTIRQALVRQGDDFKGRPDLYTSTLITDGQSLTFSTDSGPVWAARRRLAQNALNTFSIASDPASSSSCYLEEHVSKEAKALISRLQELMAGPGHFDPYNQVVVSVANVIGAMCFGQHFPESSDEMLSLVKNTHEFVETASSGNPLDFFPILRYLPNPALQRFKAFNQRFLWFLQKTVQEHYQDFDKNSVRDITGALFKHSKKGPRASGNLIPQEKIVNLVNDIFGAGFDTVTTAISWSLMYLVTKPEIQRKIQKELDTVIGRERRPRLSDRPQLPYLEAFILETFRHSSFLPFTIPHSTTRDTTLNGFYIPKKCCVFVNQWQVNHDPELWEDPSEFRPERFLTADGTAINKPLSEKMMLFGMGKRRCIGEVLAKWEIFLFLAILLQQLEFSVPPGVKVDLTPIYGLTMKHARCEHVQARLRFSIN

[2] = biological target: Cytochrome-P450 (CYP) 2C9 (Homo sapiens, UniProt P11712); test: SPR array binding of compound targets to immobilized CYP450 enzyme probes
Chain of Cytochrome-P450 (CYP) 2C9 (P11712 whole entry): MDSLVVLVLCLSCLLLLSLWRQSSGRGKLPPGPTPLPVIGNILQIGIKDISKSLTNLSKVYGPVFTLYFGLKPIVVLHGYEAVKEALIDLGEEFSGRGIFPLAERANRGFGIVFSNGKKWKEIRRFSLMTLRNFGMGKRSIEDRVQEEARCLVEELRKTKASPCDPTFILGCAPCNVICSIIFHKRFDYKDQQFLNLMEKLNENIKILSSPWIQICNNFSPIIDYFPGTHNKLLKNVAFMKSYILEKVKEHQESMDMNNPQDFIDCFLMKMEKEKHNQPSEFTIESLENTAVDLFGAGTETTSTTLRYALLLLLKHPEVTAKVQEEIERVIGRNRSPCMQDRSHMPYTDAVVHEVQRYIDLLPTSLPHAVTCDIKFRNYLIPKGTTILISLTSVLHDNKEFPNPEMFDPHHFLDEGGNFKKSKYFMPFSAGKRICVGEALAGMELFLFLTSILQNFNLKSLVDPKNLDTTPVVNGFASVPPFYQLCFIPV

[3] = biological target: Cytochrome-P450 (CYP) 2C19 (Homo sapiens, UniProt P33261); test: biochemical
Chain of Cytochrome-P450 (CYP) 2C19 (P33261 whole entry): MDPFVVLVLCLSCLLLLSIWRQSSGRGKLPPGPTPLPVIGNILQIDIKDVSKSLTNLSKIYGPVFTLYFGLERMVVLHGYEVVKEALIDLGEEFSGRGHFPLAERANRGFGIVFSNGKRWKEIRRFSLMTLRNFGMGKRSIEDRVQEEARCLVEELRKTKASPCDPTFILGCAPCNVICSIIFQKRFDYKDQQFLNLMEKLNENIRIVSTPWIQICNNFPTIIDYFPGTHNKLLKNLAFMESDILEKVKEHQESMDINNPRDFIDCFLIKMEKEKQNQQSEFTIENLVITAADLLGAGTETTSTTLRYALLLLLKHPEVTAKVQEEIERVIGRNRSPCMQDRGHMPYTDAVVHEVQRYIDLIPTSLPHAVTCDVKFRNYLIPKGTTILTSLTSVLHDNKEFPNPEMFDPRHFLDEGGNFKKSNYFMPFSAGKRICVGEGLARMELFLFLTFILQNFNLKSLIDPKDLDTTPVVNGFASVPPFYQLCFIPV

[4] = biological target: Cytochrome-P450 (CYP) 2D6 (Homo sapiens, UniProt P10635); test: biochemical
Chain of Cytochrome-P450 (CYP) 2D6 (P10635 whole entry): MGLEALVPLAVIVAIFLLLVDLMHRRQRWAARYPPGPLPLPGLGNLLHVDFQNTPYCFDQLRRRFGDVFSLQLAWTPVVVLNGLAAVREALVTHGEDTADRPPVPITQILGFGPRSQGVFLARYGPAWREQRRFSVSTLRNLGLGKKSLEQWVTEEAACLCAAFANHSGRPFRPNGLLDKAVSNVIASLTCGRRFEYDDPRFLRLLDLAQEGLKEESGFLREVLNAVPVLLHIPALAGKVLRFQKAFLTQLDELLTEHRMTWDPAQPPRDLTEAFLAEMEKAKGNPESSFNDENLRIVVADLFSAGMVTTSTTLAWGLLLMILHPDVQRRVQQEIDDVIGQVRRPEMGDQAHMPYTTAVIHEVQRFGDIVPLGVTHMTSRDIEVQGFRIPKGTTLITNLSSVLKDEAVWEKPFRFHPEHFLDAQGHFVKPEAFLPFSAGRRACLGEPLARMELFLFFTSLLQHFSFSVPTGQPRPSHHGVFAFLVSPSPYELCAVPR

Row | SMILES | Kd [1] | Kd [2] | Kd [3] | Kd [4]
1 | CC(C)NCC(O)COc1cccc2ccccc12 (stereo not drawn) [Propranolol] | 0.873 mM | 5.13 mM | 6.59 mM | 
2 | O=C(O)Cc1ccccc1Nc1c(Cl)cccc1Cl [Diclofenac] | 14.2 mM |  | 0.717 mM | 0.681 mM
3 | COc1ccc2c(c1)[C@]13CCCC[C@@H]1[C@H](C2)N(C)CC3 [Dexomethorphan] |  | 28.3 mM | 7.9 mM | 60.4 mM
